Laboratory results reported in patent US12312332B2 (Merck Sharp & Dohme LLC., priority 2019, dated 2025).

Biological target: T1, human OX2R (Homo sapiens, UniProt O43614)
T1 construct: expressed in transfected cells; host or cells: Chinese hamster ovary (CHO) cells, kept under G418 selection
T1 sequence (O43614 1-444): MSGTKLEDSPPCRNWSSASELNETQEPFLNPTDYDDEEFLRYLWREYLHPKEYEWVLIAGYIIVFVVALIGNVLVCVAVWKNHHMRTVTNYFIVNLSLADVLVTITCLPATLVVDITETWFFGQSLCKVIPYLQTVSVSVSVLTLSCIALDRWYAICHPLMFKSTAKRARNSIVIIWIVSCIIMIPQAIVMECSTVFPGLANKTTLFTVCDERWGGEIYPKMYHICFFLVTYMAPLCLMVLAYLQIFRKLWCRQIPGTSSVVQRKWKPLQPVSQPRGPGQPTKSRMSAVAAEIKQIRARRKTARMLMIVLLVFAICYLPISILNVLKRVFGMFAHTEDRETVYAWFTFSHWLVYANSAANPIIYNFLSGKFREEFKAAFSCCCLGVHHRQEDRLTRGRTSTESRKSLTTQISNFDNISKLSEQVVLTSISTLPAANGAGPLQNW
Assay: IPOne (IP-One) orexin receptor agonist assay in CHO cells expressing human OX2R
Type: cell-based
Details: for EC50: CHO cells expressing human OX2R, IP-One detection, 2 hours incubation, four parameter logistic fit, read-out: OX2R Potency, EC50; for % max agonist effect (Emax): human OX2R, percentage of sample raw value/mean max effect (reference compound at 1 uM with 100% activity)
Source text: The utility of the compounds in accordance with the present invention as orexin receptor OX1R and/or OX2R agonists may be readily determined without undue experimentation by methodology well known in the art. Both the OX1R and/or OX2R G-coupled protein receptors (GPCRs) couple through the Gaq signaling pathway, which ultimately promotes calcium mobilization via inositol triphosphate (IP3) production. […] The utility of the compounds in accordance with the present invention as orexin receptor OX1R and/or OX2R agonists may be determined utilizing this assay.
In a typical experiment, the OX1 and OX2 receptor agonist activity is determined in accordance with the following general experimental method. Chinese hamster ovary (CHO) cells expressing human OX1R and/or the human OX2R were grown in Iscove's modified DMEM containing glutaMAX™, 1% G418, 100 U/mL penicillin, 100 μg/mL streptomycin and 10% heat-inactivated qualified fetal bovine serum (FBS). […] During this incubation, IP-one detection reagents were prepared (38:1:1 lysis buffer:D2:AB-cryptate reagents).
For each compound, data were fit to a four parameter logistic fit (ActivityBase software) and the EC50 was reported as the inflection point of the resulting curve. Percent effect for each test compound was determined as the percentage of sample raw value/mean max effect, where the mean max effect was derived from the mean raw value of 32 control wells per assay plate (using Orexin A (cat #003-30) at 1 μM for human OX1R and a reference compound at 1 uM with 100% activity previously established by comparison to Orexin A for human OX2R). The intrinsic orexin receptor agonist activity of a compound which may be used in the present invention may be determined by these assays.

For `CS(=O)(=O)N[C@H]1CCN(c2cc(C(F)(F)F)ncn2)[C@H]1CO[C@H]1CC[C@@H](c2ccccc2)CC1` [Example 46, N-((2R,3S)-2-((((CIS)-4-phenylcyclohexyl)oxy)methyl)-1-(6-(trifluoromethyl)pyrimidin-4-yl)pyrrolidin-3-yl)methanesulfonamide], the EC50 was > 10000 nM and the “% max agonist effect (Emax)” value was 43.4%.

`CS(=O)(=O)N[C@H]1CCN(c2cncc(O)c2)[C@H]1CO[C@H]1CC[C@@H](c2ccccc2)CC1` [Example 47, N-((2R,3S)-1-(5-hydroxypyridin-3-yl)-2-((((CIS)-4-phenylcyclohexyl)oxy)methyl)pyrrolidin-3-yl)methanesulfonamide] was tested, and the EC50 was 9 nM and the “% max agonist effect (Emax)” value was 101.4%.

With `Cc1nccc(N2CC[C@H](NS(C)(=O)=O)[C@@H]2CO[C@H]2CC[C@@H](c3ccccc3)CC2)n1` [Example 48, N-((2R,3S)-1-(2-methylpyrimidin-4-yl)-2-((((CIS)-4-phenylcyclohexyl)oxy)methyl)pyrrolidin-3-yl)methanesulfonamide] the EC50 was 6830 nM and the “% max agonist effect (Emax)” value was 77.3%.

`CS(=O)(=O)N[C@H]1CCN(c2cncc(CO)c2)[C@H]1CO[C@H]1CC[C@@H](c2ccccc2)CC1` [Example 49, N-((2R,3S)-1-(5-(hydroxymethyl)pyridin-3-yl)-2-((((CIS)-4-phenylcyclohexyl)oxy)methyl)pyrrolidin-3-yl)methanesulfonamide] was tested, and the EC50 was 217 nM and the “% max agonist effect (Emax)” value was 99.6%.

`CS(=O)(=O)N[C@H]1CCN(c2cncc(C(F)(F)F)c2)[C@H]1CO[C@H]1CC[C@@H](c2ccccc2)CC1` [Example 50, N-((2R,3S)-2-((((CIS)-4-phenylcyclohexyl)oxy)methyl)-1-(5-(trifluoromethyl)pyridin-3-yl)pyrrolidin-3-yl)methanesulfonamide] was tested, and the EC50 was 944 nM and the “% max agonist effect (Emax)” value was 95.1%.

In the case of `COc1ccncc1N1CC[C@H](NS(C)(=O)=O)[C@@H]1CO[C@H]1CC[C@@H](c2ccccc2)CC1` [Example 51, N-((2R,3S)-1-(4-methoxypyridin-3-yl)-2-((((CIS)-4-phenylcyclohexyl)oxy)methyl)pyrrolidin-3-yl)methanesulfonamide], the EC50 is reported as 14.2 nM and the “% max agonist effect (Emax)” value is reported as 100.3%.

With `CS(=O)(=O)N[C@H]1CCN(c2cncc(OC(F)F)c2)[C@H]1CO[C@H]1CC[C@@H](c2ccccc2)CC1` [Example 52, N-((2R,3S)-1-(5-(difluoromethoxy)pyridin-3-yl)-2-((((CIS)-4-phenylcyclohexyl)oxy)methyl)pyrrolidin-3-yl)methanesulfonamide] the EC50 was 649 nM and the “% max agonist effect (Emax)” value was 99.2%.

In the case of `COc1ccc(N2CC[C@H](NS(C)(=O)=O)[C@@H]2CO[C@H]2CC[C@@H](c3ccccc3)CC2)cn1` [Example 53, N-((2R,3S)-1-(6-methoxypyridin-3-yl)-2-((((CIS)-4-phenylcyclohexyl)oxy)methyl)pyrrolidin-3-yl)methanesulfonamide], the EC50 is reported as 223 nM and the “% max agonist effect (Emax)” value is reported as 100.6%.

In the case of `COc1cc(N2CC[C@H](NS(C)(=O)=O)[C@@H]2CO[C@H]2CC[C@@H](c3ccccc3)CC2)cnc1OC` [Example 54, N-((2R,3S)-1-(5,6-dimethoxypyridin-3-yl)-2-((((CIS)-4-phenylcyclohexyl)oxy)methyl)pyrrolidin-3-yl)methanesulfonamide], the EC50 is reported as 782 nM and the “% max agonist effect (Emax)” value is reported as 98.9%.

`COc1ncc(N2CC[C@H](NS(C)(=O)=O)[C@@H]2CO[C@H]2CC[C@@H](c3ccccc3)CC2)cc1C` [Example 55, N-((2R,3S)-1-(6-methoxy-5-methylpyridin-3-yl)-2-((((CIS)-4-phenylcyclohexyl)oxy)methyl)pyrrolidin-3-yl)methanesulfonamide] was tested, and the EC50 was 2380 nM and the “% max agonist effect (Emax)” value was 91.4%.

In the case of `CS(=O)(=O)N[C@H]1CCN(c2ccncc2CO)[C@H]1CO[C@H]1CC[C@@H](c2ccccc2)CC1` [Example 56, N-((2R,3S)-1-(3-(hydroxymethyl)pyridin-4-yl)-2-((((CIS)-4-phenylcyclohexyl)oxy)methyl)pyrrolidin-3-yl)methanesulfonamide], the EC50 is reported as > 10000 nM and the “% max agonist effect (Emax)” value is reported as 61.6%.

In the case of `CS(=O)(=O)N[C@H]1CCN(c2ccncc2)[C@H]1CO[C@H]1CC[C@@H](c2ccccc2)CC1` [Example 57, N-((2R,3S)-2-((((CIS)-4-phenylcyclohexyl)oxy)methyl)-1-(pyridin-4-yl)pyrrolidin-3-yl)methanesulfonamide], the EC50 is reported as 4050 nM and the “% max agonist effect (Emax)” value is reported as 87.6%.

For `CS(=O)(=O)N[C@H]1CCN(c2ccc(OC(F)F)nc2)[C@H]1CO[C@H]1CC[C@@H](c2ccccc2)CC1` [Example 58, N-((2R,3S)-1-(6-(difluoromethoxy)pyridin-3-yl)-2-((((CIS)-4-phenylcyclohexyl)oxy)methyl)pyrrolidin-3-yl)methanesulfonamide], the EC50 was 162 nM and the “% max agonist effect (Emax)” value was 100.9%.

`COc1cc(N2CC[C@H](NS(C)(=O)=O)[C@@H]2CO[C@H]2CC[C@@H](c3ccccc3)CC2)ccn1` [Example 59, N-((2R,3S)-1-(2-methoxypyridin-4-yl)-2-((((CIS)-4-phenylcyclohexyl)oxy)methyl)pyrrolidin-3-yl)methanesulfonamide] was tested, and the EC50 was 2860 nM and the “% max agonist effect (Emax)” value was 87.2%.

In the case of `Cc1ncc(N2CC[C@H](NS(C)(=O)=O)[C@@H]2CO[C@H]2CC[C@@H](c3ccccc3)CC2)cn1` [Example 60, N-((2R,3S)-1-(2-methylpyrimidin-5-yl)-2-((((CIS)-4-phenylcyclohexyl)oxy)methyl)pyrrolidin-3-yl)methanesulfonamide], the EC50 is reported as 251 nM and the “% max agonist effect (Emax)” value is reported as 100.0%.

For `CC(C)(O)c1ccc(N2CC[C@H](NS(C)(=O)=O)[C@@H]2CO[C@H]2CC[C@@H](c3ccccc3)CC2)cn1` [Example 61, N-((2R,3S)-1-(6-(2-hydroxypropan-2-yl)pyridin-3-yl)-2-((((CIS)-4-phenylcyclohexyl)oxy)methyl)pyrrolidin-3-yl)methanesulfonamide], the EC50 was 38.3 nM and the “% max agonist effect (Emax)” value was 101.3%.

`Cc1cncc(N2CC[C@H](NS(C)(=O)=O)[C@@H]2CO[C@H]2CC[C@@H](c3ccccc3)CC2)n1` [Example 62, N-((2R,3S)-1-(6-methylpyrazin-2-yl)-2-((((CIS)-4-phenylcyclohexyl)oxy)methyl)pyrrolidin-3-yl)methanesulfonamide] was tested, and the EC50 was 330 nM and the “% max agonist effect (Emax)” value was 100.6%.

With `CS(=O)(=O)N[C@H]1CCN(c2ncc(F)cc2F)[C@H]1CO[C@H]1CC[C@@H](c2ccccc2)CC1` [Example 63, N-((2R,3S)-1-(3,5-difluoropyridin-2-yl)-2-((((CIS)-4-phenylcyclohexyl)oxy)methyl)pyrrolidin-3-yl)methanesulfonamide] the EC50 was 331 nM and the “% max agonist effect (Emax)” value was 101.1%.

With `COc1cncc(N2CC[C@H](NS(C)(=O)=O)[C@@H]2CO[C@H]2CC[C@@H](c3ccccc3)CC2)c1` [Example 64, N-((2R,3S)-1-(5-methoxypyridin-3-yl)-2-((((CIS)-4-phenylcyclohexyl)oxy)methyl)pyrrolidin-3-yl)methanesulfonamide] the EC50 was 46.3 nM and the “% max agonist effect (Emax)” value was 101.1%.

In the case of `Cc1cnc(N2CC[C@H](NS(C)(=O)=O)[C@@H]2CO[C@H]2CC[C@@H](c3ccccc3)CC2)cn1` [Example 65, N-((2R,3S)-1-(5-methylpyrazin-2-yl)-2-((((CIS)-4-phenylcyclohexyl)oxy)methyl)pyrrolidin-3-yl)methanesulfonamide], the EC50 is reported as 123 nM and the “% max agonist effect (Emax)” value is reported as 100.9%.

`CS(=O)(=O)N[C@H]1CCN(c2cnc(C3CC3)cn2)[C@H]1CO[C@H]1CC[C@@H](c2ccccc2)CC1` [Example 66, N-((2R,3S)-1-(5-cyclopropylpyrazin-2-yl)-2-((((CIS)-4-phenylcyclohexyl)oxy)methyl)pyrrolidin-3-yl)methanesulfonamide] was tested, and the EC50 was 178 nM and the “% max agonist effect (Emax)” value was 99.2%.

In the case of `Cc1ccnc(N2CC[C@H](NS(C)(=O)=O)[C@@H]2CO[C@H]2CC[C@@H](c3ccccc3)CC2)n1` [Example 67, N-((2R,3S)-1-(4-methylpyrimidin-2-yl)-2-((((CIS)-4-phenylcyclohexyl)oxy)methyl)pyrrolidin-3-yl)methanesulfonamide], the EC50 is reported as 2180 nM and the “% max agonist effect (Emax)” value is reported as 92.6%.
